Molecular target: T1, human GlyT1c transporter (Homo sapiens, UniProt P48067)
T1 construct: expressed in transfected cells; host or cells: CHO cells (recombinant; line hGlyT1c_5_CHO is named for the uptake assay)
T1 sequence (P48067 1-706): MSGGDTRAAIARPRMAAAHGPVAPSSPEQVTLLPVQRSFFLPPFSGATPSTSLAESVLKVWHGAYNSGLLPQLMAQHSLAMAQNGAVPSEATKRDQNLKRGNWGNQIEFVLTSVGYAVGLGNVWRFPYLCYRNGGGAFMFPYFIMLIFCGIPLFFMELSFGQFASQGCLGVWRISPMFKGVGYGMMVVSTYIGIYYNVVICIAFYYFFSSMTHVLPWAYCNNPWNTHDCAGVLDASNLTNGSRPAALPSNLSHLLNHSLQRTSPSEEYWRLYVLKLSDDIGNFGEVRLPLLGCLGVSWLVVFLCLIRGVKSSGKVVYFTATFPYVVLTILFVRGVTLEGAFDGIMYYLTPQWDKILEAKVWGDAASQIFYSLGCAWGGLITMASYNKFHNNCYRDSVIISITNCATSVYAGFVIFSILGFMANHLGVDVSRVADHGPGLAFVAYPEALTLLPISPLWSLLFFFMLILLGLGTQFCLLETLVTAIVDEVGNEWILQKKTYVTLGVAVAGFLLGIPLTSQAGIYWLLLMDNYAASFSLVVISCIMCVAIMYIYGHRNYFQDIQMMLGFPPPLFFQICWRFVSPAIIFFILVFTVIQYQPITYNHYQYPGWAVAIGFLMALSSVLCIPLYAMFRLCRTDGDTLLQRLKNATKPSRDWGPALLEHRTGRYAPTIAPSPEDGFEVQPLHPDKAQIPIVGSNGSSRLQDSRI
Experiment: Radioligand binding assay using recombinant CHO cell membranes expressing human GlyT1
Excerpt: 2. Radioligand binding assays using recombinant CHO cell membranes expressing human GlyT1: […]

[1] = radioligand binding, recombinant CHO cell membranes expressing human GlyT1c
[2] = radioligand binding to human GlyT1c transporter-expressing membranes

SMILES | Ki [1] | Ki [2]
Cc1cc(N[C@@H]2CN(S(=O)(=O)c3cn(C)cn3)C[C@H]2C2CCCCO2)ccc1F (relative stereo) [Example 847, Trans-N-(4-fluoro-3-methylphenyl)-1-[(1-methyl-1H-imidazol-4-yl)sulfonyl]-4-(tetrahydro-2H-pyran-2-yl)pyrrolidin-3-amine] | ≤ 100 nM | 
Cn1cnc(S(=O)(=O)N2C[C@@H](Nc3cc(C(F)(F)F)c(Cl)cn3)[C@H](C3CCCCO3)C2)c1 (relative stereo) [Example 848, 5-Chloro-N-[trans-1-[(1-methyl-1H-imidazol-4-yl)sulfonyl]-4-(tetrahydro-2H-pyran-2-yl)pyrrolidin-3-yl]-4-(trifluoromethyl)pyridin-2-amine] | ≤ 1000 nM | 
Cn1cnc(S(=O)(=O)N2C[C@@H](Nc3cccc(Cl)c3)[C@H](C3CCCCO3)C2)c1 (relative stereo) [Example 849, Trans-N-(3-chlorophenyl)-1-[(1-methyl-1H-imidazol-4-yl)sulfonyl]-4-(tetrahydro-2H-pyran-2-yl)pyrrolidin-3-amine] | ≤ 100 nM | 
Cn1cnc(S(=O)(=O)N2C[C@@H](Nc3cccc(Cl)c3)[C@H](C3CCCO3)C2)c1 (relative stereo) [Example 850, Trans-N-(3-chlorophenyl)-1 - [(1-methyl-1H-imidazol-4-yl)sulfonyl] -4-(tetrahydrofuran-2-yl)pyrrolidin-3-amine] | ≤ 1000 nM | 
Cc1cc(N[C@@H]2CN(S(=O)(=O)c3cn(C)cn3)C[C@H]2C2CCCO2)ncc1F (relative stereo) [Example 851, 5-Fluoro-4-methyl-N-[trans-1-[(1-methyl-1H-imidazol-4-yl)sulfonyl]-4-(tetrahydrofuran-2-yl)pyrrolidin-3-yl]pyridin-2-amine] | ≤ 10000 nM | 
Cc1cc(N[C@@H]2CN(S(=O)(=O)c3cn(C)cn3)C[C@H]2C2CCCCO2)ncc1F (relative stereo) [Example 852, 5-Fluoro-4-methyl-N-[trans-1-[(1-methyl-1H-imidazol-4-yl)sulfonyl]-4-(tetrahydro-2H-pyran-2-yl)pyrrolidin-3-yl]pyridin-2-amine] | ≤ 1000 nM | 
Cn1cnc(S(=O)(=O)N2CC(Cc3ccccc3Br)C(c3ccccc3Br)C2)c1 (centres unmarked) [Example 205, 4-{[3-(2-bromobenzyl)-4-(2-bromophenyl)pyrrolidin-1-yl]sulfonyl}-1-methyl-1H-imidazole] |  | ≤ 1000 nM
Cn1cnc(S(=O)(=O)N2CC(Oc3ccccc3)C(c3ccccc3)C2)c1 (centres unmarked) [Example 277, 1-methyl-4-[(3-phenoxy-4-phenylpyrrolidin-1-yl)sulfonyl]-1H-imidazole] |  | ≤ 10000 nM
Cn1cnc(S(=O)(=O)N2CC(Cc3cccc(Cl)c3)C(C3CC3)C2)c1 (centres unmarked) [Example 309, 4-{[3-(3-chlorobenzyl)-4-cyclopropylpyrrolidin-1-yl]sulfonyl}-1-methyl-1H-imidazole] |  | ≤ 1000 nM
Cn1cnc(S(=O)(=O)N2C[C@@H](NCc3ccc(C(F)(F)F)cc3Cl)[C@H](c3ccc(F)cc3)C2)c1 [Example 321, (3S,4R)-N-[2-chloro-4-(trifluoromethyl)benzyl]-4-(4-fluorophenyl)-1-[(1-methyl-1H-imidazol-4-yl)sulfonyl]pyrrolidin-3-amine] |  | ≤ 1000 nM
Cn1cnc(S(=O)(=O)N2CC(c3ccccc3)C(Cc3cccc(Cl)c3)C2=O)c1 (centres unmarked) [Example 331, 3-(3-chlorobenzyl)-1-[(1-methyl-1H-imidazol-4-yl)sulfonyl]-4-phenylpyrrolidin-2-one] |  | ≤ 1000 nM
Cn1cnc(S(=O)(=O)N2C[C@H](Nc3cccc(C(F)(F)F)n3)[C@@H](c3ccc(F)cc3)C2)c1 [Example 351, N-{(3R,4S)-4-(4-fluorophenyl)-1-[(1-methyl-1H-imidazol-4-yl)sulfonyl]pyrrolidin-3-yl}-6-(trifluoromethyl)pyridin-2-amine] |  | ≤ 1000 nM
Cn1cnc(S(=O)(=O)N2C[C@H](NC(=O)C3(C(F)(F)F)CC3)[C@@H](c3ccc(F)cc3)C2)c1 [Example 375, N-{(3R,4S)-4-(4-fluorophenyl)-1-[(1-methyl-1H-imidazol-4-yl)sulfonyl]pyrrolidin-3-yl}-1-(trifluoromethyl)cyclopropanecarboxamide] |  | ≥ 10000 nM
Cn1cnc(S(=O)(=O)N2C[C@H](NCC3(C(F)(F)F)CC3)[C@@H](c3ccc(F)cc3)C2)c1 [Example 386, (3R,4S)-4-(4-fluorophenyl)-1-[(1-methyl-1H-imidazol-4-yl)sulfonyl]-N-{[-(trifluoromethyl)cyclopropyl]methyl}pyrrolidin-3-amine] |  | ≤ 1000 nM
Cn1cnc(S(=O)(=O)N2C[C@@H](Nc3ccc(F)c(Cl)c3)[C@H](c3ccc(F)cc3)C2)c1 [Example 387, (3S,4R)-N-(3-chloro-4-fluorophenyl)-4-(4-fluorophenyl)-1-[(1-methyl-1H-imidazol-4-yl)sulfonyl]pyrrolidin-3-amine] |  | ≤ 10000 nM
Cn1cnc(S(=O)(=O)N2C[C@H](NCc3ccc(C(F)(F)F)o3)[C@@H](c3ccc(F)cc3)C2)c1 [Example 391, (3R,4S)-4-(4-fluorophenyl)-1-[(1-methyl-1H-imidazol-4-yl)sulfonyl]-N-{[5-(trifluoromethyl)furan-2-yl]methyl}pyrrolidin-3-amine] |  | ≤ 100 nM

The next lines start with the values.

Ki [1] | Ki [2] | SMILES
 | ≤ 100 nM | Cn1cnc(S(=O)(=O)N2CC(Cc3cccc(Cl)c3)C(c3ccc(F)cc3)C2)c1 (centres unmarked) [Example 182, 4-{[3-(3-chlorobenzyl)-4-(4-fluorophenyl)pyrrolidin-1-yl]sulfonyl}-1-methyl-1H-imidazole]
 | ≤ 100 nM | Cn1cnc(S(=O)(=O)N2CC(Nc3ccc(F)c(C(F)F)c3)C(c3ccc(F)cc3)C2)c1 (centres unmarked) [Example 310, N-[3-(difluoromethyl)-4-fluorophenyl]-4-(4-fluorophenyl)-1-[(1-methyl-1H-imidazol-4-yl)sulfonyl]pyrrolidin-3-amine]
 | ≤ 10 nM | Cn1cnc(S(=O)(=O)N2C[C@H](NCc3ccc(C(F)(F)F)cc3Cl)[C@@H](c3ccc(F)cc3)C2)c1 [Example 322, (3R,4S)-N-[2-chloro-4-(trifluoromethyl)benzyl]-4-(4-fluorophenyl)-1-[(1-methyl-1H-imidazol-4-yl)sulfonyl]pyrrolidin-3-amine]
 | ≤ 10000 nM | Cn1cnc(S(=O)(=O)N2C[C@@H](Nc3ccc(F)cc3)[C@H](c3ccc(F)cc3)C2)c1 [Example 324, (3S,4R)-N,4-bis(4-fluorophenyl)-1-[(1-methyl-1H-imidazol-4-yl)sulfonyl]pyrrolidin-3-amine]
 | ≤ 1000 nM | Cn1cnc(S(=O)(=O)N2C[C@@H](Nc3cccc(Cl)c3)[C@H](c3ccc(F)cc3)C2)c1 [Example 325, (3S,4R)-N-(3-chlorophenyl)-4-(4-fluorophenyl)-1-[(1-methyl-1H-imidazol-4-yl)sulfonyl]pyrrolidin-3-amine]
 | ≤ 100 nM | Cn1cnc(S(=O)(=O)N2C[C@H](Nc3cccc(Cl)c3)[C@@H](c3ccc(F)cc3)C2)c1 [Example 328, (3R,4S)-N-(3-chlorophenyl)-4-(4-fluorophenyl)-1-[(1-methyl-1H-imidazol-4-yl)sulfonyl]pyrrolidin-3-amine]
 | ≤ 100 nM | Cn1cnc(S(=O)(=O)N2C[C@H](Nc3ccc(F)cc3)[C@@H](c3ccc(F)cc3)C2)c1 [Example 330, (3R,4S)-N,4-bis(4-fluorophenyl)-1-[(1-methyl-1H-imidazol-4-yl)sulfonyl]pyrrolidin-3-amine]
 | ≤ 10000 nM | Cn1cnc(S(=O)(=O)N2CC(c3ccc(F)cc3)C(c3ccccc3Cl)C2)c1 (centres unmarked) [Example 339, 4-{[3-(2-chlorophenyl)-4-(4-fluorophenyl)pyrrolidin-1-yl]sulfonyl}-1-methyl-1H-imidazole]
 | ≤ 1000 nM | Cn1cnc(S(=O)(=O)N2CC(c3ccc(F)cc3)C(c3ccc(Cl)cc3)C2)c1 (centres unmarked) [Example 340, 4-{[3-(4-chlorophenyl)-4-(4-fluorophenyl)pyrrolidin-1-yl]sulfonyl}-1-methyl-1H-imidazole]
 | ≤ 100 nM | CC(C)Oc1cccc(NC2CN(S(=O)(=O)c3cn(C)cn3)CC2c2ccc(F)cc2)c1 (centres unmarked) [Example 349, 4-(4-fluorophenyl)-1-[(1-methyl-1H-imidazol-4-yl)sulfonyl]-N-[3-(propan-2-yloxy)phenyl]pyrrolidin-3-amine]
 | > 10000 nM | Cn1cnc(S(=O)(=O)N2CC(Nc3cccnn3)C(c3ccc(F)cc3)C2)c1 (centres unmarked) [Example 350, N-{4-(4-fluorophenyl)-1-[(1-methyl-1H-imidazol-4-yl)sulfonyl]pyrrolidin-3-yl}pyridazin-3-amine]
 | ≤ 100 nM | Cn1cnc(S(=O)(=O)N2C[C@H](Nc3cccc(F)c3)[C@@H](c3ccc(F)cc3)C2)c1 [Example 353, (3R,4S)-N-(3-fluorophenyl)-4-(4-fluorophenyl)-1-[(1-methyl-1H-imidazol-4-yl)sulfonyl]pyrrolidin-3-amine]
 | ≤ 100 nM | Cn1cnc(S(=O)(=O)N2C[C@H](Nc3cccc(C(C)(O)C(F)(F)F)c3)[C@@H](c3ccc(F)cc3)C2)c1 (stereo partly drawn) [Example 392, 1,1,1-trifluoro-2-[3-({(3R,4S)-4-(4-fluorophenyl)-1-[(1-methyl-1H-imidazol-4-yl)sulfonyl]pyrrolidin-3-yl}amino)phenyl]propan-2-ol]
